Earlier results in US20020193323A1, “Compositions and methods for promoting a healthy cardiovascular system and enhancing blood flow” (priority 2000, published 2002).

Tests used:
[1] = in vivo
glutathione system = settings: selenium supplementation, through activation of the glutathione system

SMILES | reduce risk of major coronary events [1] [%] | reduced lipid peroxidation levels (glutathione system) [%]
CC1=C(/C=C/C(C)=C/C=C/C(C)=C/C=C/C=C(C)/C=C/C=C(C)/C=C/C2=C(C)CCCC2(C)C)C(C)(C)CCC1 [Beta-carotene] | 51 | –
[Se] [selenium] | – | 50
